Test results: patent US11590117B2, “Treatment of a hematologic malignancy with 2-(4-chlorophenyl)-n-((2-(2,6-dioxopiperidin-3-yl)-1-oxoisoindolin-5-yl)methyl)-2,2-difluoroacetamide” (priority 2016, dated 2023)
Like-named read-outs stand apart in the source and are kept apart here.

How the values were obtained:
[1] = system: HL-60 human AML cells; assay: HL-60 IV AML xenograft model, bone marrow histology; type: in vivo, SCID mice
Procedure: In this study, different Compound 1 dosing schedules (5 mg/kg, BID×5 consecutive days versus 2.5 mg/kg, BID×10 consecutive days) were studied while maintaining the total amount of drug administered constant. Vehicle control animals were treated with 5% N-methyl-2-pyrrolidone (NMP)/45% PEG 400/50% saline. Treatment was initiated 6 weeks post inoculation. Vehicle and Compound 1 treatment groups were terminated either on Day 7 (following 5 consecutive days of 5 mg/kg twice a day [BID] Compound 1) or on Day 11 (following 10 consecutive days of 2.5 mg/kg BID Compound 1) post treatment initiation. The primary endpoint for the study was percentage of hCD33+/CD45+ cells in the BM by FACS analysis. Additional endpoints included cell viability, body weight, and BM histology.
The alternate femur of vehicle and Compound 1-treated animals was fixed in formalin, embedded in paraffin and processed for hematoxylin and eosin staining. A single tissue section/animal was used for histological analysis and the percent of tumor in viable bone marrow was estimated based on the area occupied by tumor cells. There was a significant 35% reduction (p<0.006 relative to the vehicle control) in the percentage of viable tumor in the bone marrow with Compound 1 (5 mg/kg) BID×5 treatment. […]

[2] = system: U-937; assay: CellTiter-Glo (CTG) cell proliferation assay, 72 hours; type: cell-based, human
Procedure: (§1) Preparation of Solutions of Test Article: Compounds were plated into black 384-well plates (Corning Inc.) to a final DMSO volume of 0.1% assuming a maximal volume of 50 μL. A 10-point dose response starting at 10 μM with a 1:3 dilution was printed in duplicate by acoustic dispense using the EDC ATS-100 platform.
(§2) Cell Proliferation Assays: The effect of Compound 1 on the proliferation/viability of the hematological cell lines (Table 1 Table, Table 2 and Table 3), THLE-2, or PBMCs was assessed after 72 hours incubation using CTG (Promega), according to manufacturer's instructions. Hematological cell lines were dispensed into compound plates by a Multidrop™ Combi Reagent Dispenser (Thermo Scientific, Waltham, Mass.) at a concentration of 0.1 to 0.3×10^6 cells per mL in a 50 μL total volume. THLE-2 cells were seeded out at 1000 cells per well in 50 μL volume and incubated for 72 hours. At 72 hours, 25 μL per well of CTG was dispensed by a Multidrop™ Combi Reagent Dispenser and adenosine triphosphate (ATP) release by viable cells was measured as relative luminescence units after 30 minutes using the Envision platform.
(§3) Proliferation was assessed using the CellTitre-Glo® assay. Results for cultures incubated with Compound 1 were normalized to results for control cultures for each cell line. The IC50 for inhibition of cell growth by Compound 1 was determined for each cell line using ActivityBase software.
(§4) Cultures of 11 different AML cell lines were incubated 72 hours with Compound 1 at concentrations of 0.5 nM to 10 μM. Proliferation was assessed using the CellTitre-Glo® assay. Results for cultures incubated with Compound 1 were normalized to results for control cultures for each cell line. Inhibition of cell growth was also determined in THLE-2 cells at Compound 1 concentrations of 0.1 nM to 100 μM and in PBMCs at Compound 1 concentrations of 0.5 nM to […]. The Compound 1 therapeutic window was calculated using area under the curve (AUC; Activity Area [Barretina et al, Nature (2012) 483603-607] measurements (in arbitrary units) as determined using GraphPad Prism software for plots of cell proliferation vs concentration and dividing the AUC for the immortalized (but nontumorigenic) human THLE-2 hepatocyte cell line or PBMCs by the AUC for the AML cell line.

[3] = system: OCI-AML3; assay: as above; type: cell-based, human; settings: for IC50: liquid culture
Procedure: as §1, §2, §3, §4

[4] = system: NB-4; assay: as above; type: cell-based, human
Procedure: as §1, §2, §3, §4

[5] = system: MOLM-13; assay: as above; type: cell-based, human
Procedure: as §1, §2, §3, §4

[6] = system: HL-60 human AML cells; assay: HL-60 IV AML xenograft model, survival study; type: in vivo, SCID mice
Procedure: In this study, Compound 1 antitumor activity in the HL-60 IV AML xenograft model was studies. In this model, HL-60 human AML cells engraft in host BM and internal organs (eg, spleen, liver) and animals develop progressive peripheral leukocytosis. Female severe combined immunodeficiency (SCID) mice were inoculated with HL-60 cells by tail vein injection. To understand the effect of Compound 1 on the xenografted HL-60 cells, animals were dosed intraperitoneal (IP) with vehicle or Compound 1 (0.5, 1, 2.5, and 5 mg/kg) once daily (QD)×5 between Weeks 3 and 4 post-engraftment (AP6516, survival study) or animals were dosed IP twice daily (BID) with vehicle or Compound 1 for 5 or 10 consecutive days (5 mg/kg BID×5 or 2.5 mg/kg, BID×10) between Weeks 6 and 8 post-engraftment (Study AP6982, % human CD33+[hCD33+] cells in BM).
Tumor burden from the peripheral blood of HL-60-bearing animals was assessed by fluorescence-activated cell sorting (FACS) at Week 7 post-tumor cell inoculation. […] Mice from the vehicle control and Compound 1 treatment groups succumbed to disease burden starting on Day 54 for the vehicle control group and between Day 51 and Day 57 for the Compound 1 treatment groups. […] One mouse (1/8) from the 2.5 mg/kg Compound 1-treated group survived to study termination on Day 162.

[7] = U-937, AUC PBMCs divided by AUC AML cell line
[8] = U-937, AUC THLE-2 divided by AUC AML cell line
[9] = OCI-AML3, AUC PBMCs divided by AUC AML cell line
[10] = OCI-AML3, AUC THLE-2 divided by AUC AML cell line
[11] = NB-4, AUC PBMCs divided by AUC AML cell line
[12] = NB-4, AUC THLE-2 divided by AUC AML cell line
[13] = MOLM-13, AUC PBMCs divided by AUC AML cell line
[14] = MOLM-13, AUC THLE-2 divided by AUC AML cell line

With O=C1CCC(N2Cc3cc(CNC(=O)C(F)(F)c4ccc(Cl)cc4)ccc3C2=O)C(=O)N1 (stereo not drawn) [Compound 1, 2-(4-chlorophenyl)-N-((2-(2,6-dioxopiperidin-3-yl)-1-oxoisoindolin-5-yl)methyl)-2,2-difluoroacetamide] the “reduction in percentage of viable tumor in the bone marrow (histology)” value ([1]; 2.5 mg/kg BID×10, relative to vehicle control, not statistically significant) was 23.5%, the “reduction in percentage of viable tumor in the bone marrow (histology)” value ([1]; 5 mg/kg BID×5, p<0.006 relative to vehicle control) was 35% and the IC50 ([2]; Homo sapiens, U-937, 72 h, read-out: Proliferation IC50 (mean ± SD)) was 74 ± 25 nM. For the same compound, the “Therapeutic Window Method 1 As Compared with PBMCs” value [2, 7] was 6.3, the “Therapeutic Window Method 2 As Compared with PBMCs” value [2, 7] was 3.6 and the “Therapeutic Window Method 1 As Compared with THLE-2 Cells” value [2, 8] was 9.8. For the same compound, the “Therapeutic Window Method 2 As Compared with THLE-2 Cells” value [2, 8] was 13.7, the AUC ([2]; U-937, Activity Area of proliferation vs concentration, 72 hours, 0.5 nM to 10 μM) was 40.0 arbitrary units and the IC50 ([3]; Homo sapiens, OCI-AML-3, 72 h, read-out: Proliferation IC50 (mean ± SD), OCI-AML3, 72 hours) was 3000 nM. For the same compound, the “Therapeutic Window Method 1 As Compared with PBMCs” value [3, 9] was 0.45, the “Therapeutic Window Method 2 As Compared with PBMCs” value [3, 9] was 0.3 and the “Therapeutic Window Method 1 As Compared with THLE-2 Cells” value [3, 10] was 0.70. The “Therapeutic Window Method 2 As Compared with THLE-2 Cells” value [3, 10] was 1.0, the AUC ([3]; OCI-AML3, Activity Area of proliferation vs concentration, 72 hours, 0.5 nM to 10 μM) was 563.0 arbitrary units and the IC50 ([3]; read-out: Proliferation IC50 (mean ± SD), OCI-AML3, 72 hours) was 3400 ± 3330 nM. The IC50 ([4]; Homo sapiens, NB-4, 72 h, read-out: Proliferation IC50 (mean ± SD)) was 17 ± 5 nM, the “Therapeutic Window Method 1 As Compared with PBMCs” value [4, 11] was 17 and the “Therapeutic Window Method 2 As Compared with PBMCs” value [4, 11] was 10.1. For the same compound, the “Therapeutic Window Method 1 As Compared with THLE-2 Cells” value [4, 12] was 27, the “Therapeutic Window Method 2 As Compared with THLE-2 Cells” value [4, 12] was 38.1 and the AUC ([4]; NB-4, Activity Area of proliferation vs concentration, 72 hours, 0.5 nM to 10 μM) was 14.4 arbitrary units. For the same compound, the IC50 ([5]; Homo sapiens, MOLM-13, 72 h, read-out: Proliferation IC50 (mean ± SD)) was 75 ± 33 nM, the “Therapeutic Window Method 1 As Compared with PBMCs” value [5, 13] was 6.3 and the “Therapeutic Window Method 2 As Compared with PBMCs” value [5, 13] was 3.7. For the same compound, the “Therapeutic Window Method 1 As Compared with THLE-2 Cells” value [5, 14] was 9.9, the “Therapeutic Window Method 2 As Compared with THLE-2 Cells” value [5, 14] was 13.9 and the AUC ([5]; MOLM-13, Activity Area of proliferation vs concentration, 72 hours, 0.5 nM to 10 μM) was 39.6 arbitrary units. The “mice surviving to study termination on Day 162” value ([6]; 2.5 mg/kg group) was 1/8, the overall survival ([6]; 0.5, 1, 2.5, 5 mg/kg IP QD×5 between Weeks 3 and 4 post-engraftment) was “No overall survival benefit” and the “tumor burden from peripheral blood (FACS)” value ([6]; Week 7 post-tumor cell inoculation, 0.5, 1, 2.5, 5 mg/kg IP QD×5, vs vehicle) was “No effect”.
